Assay results: US11059795B2, “Androgen receptor modulators and methods for their use” (ESSA Pharma, Inc., priority 2018, dated 2021)

Key:
[1] = Microsomal stability assay, rat liver microsomes; format: in vitro ADME; conditions: pH 7.4, read-out: Liver microsome T½ (min) Rat
Protocol: (§1) Microsomal stability assay is a widely used in vitro model to characterize the metabolic conversion by phase I enzymes, such as cytochrome P450 (CYP) enzymes. Since metabolism is known to be highly variable in different species, microsomal stability assay is commonly run in multiple species. Metabolic stability of testing compound can be evaluated using human, rat, mouse, or other animal liver or intestine microsomes to predict intrinsic clearance.
(§2) The assay was carried out in 96-well microtiter plates at 37° C. Reaction mixtures (25 μL) contained a final concentration of 1 μM test compound, 0.5 mg/mL liver microsomes protein, and 1 mM NADPH and/or 1 mM UDPGA (with alamethicin) in 100 mM potassium phosphate, pH 7.4 buffer with 3 mM MgCl2. The incubation was done with N=1, but duplicate incubation at each time point can be prepared if necessary. At each of the time points (for example, 0, 15, 30, and 60 minutes), 150 μL of quench solution (100% acetonitrile with 0.1% formic acid) with internal standard was transferred to each well. Besides the zero minute controls, mixtures containing the same components except the NADPH can also be prepared as the negative control. Verapamil was included as a positive control to verify assay performance. Plates were sealed, vortexed, and centrifuged at 4° C. for 15 minutes at 4000 rpm. The supernatant is transferred to fresh plates for LC/MS/MS analysis.
(§3) Summarized conditions: [Compound]=[…], [LM]=0.5 mg/mL, [NADPH]=1 mM and/or [UDPGA]=1 mM, Buffer=100 mM Potassium Phosphate, pH 7.4 with 3 mM MgCl2, Time=0, 15, 30, and 60 min, and Temperature=37° C.
(§4) All samples were analyzed on LC/MS/MS using an AB Sciex API 4000 instrument, coupled to a Shimadzu LC-20AD LC Pump system. Analytical samples were separated using a Waters Atlantis T3 dC18 reverse phase HPLC column (20 mm×2.1 mm) at a flow rate of 0.5 mL/min. The mobile phase consisted of 0.1% formic acid in water (solvent A) and 0.1% formic acid in 100% acetonitrile (solvent B).
(§5) The extent of metabolism is calculated as the disappearance of the test compound, compared to the 0-min time incubation. Initial rates are calculated for the compound concentration and used to determine half-life (t½) values and subsequently, the intrinsic clearance (Clint). Clint=(0.693)(1/t½ (min))(g of liver/kg of body weight)(mL incubation/mg of microsomal protein)(45 mg of microsomal protein/g of liver weight)

[2] = target: T1, LBD of progesterone receptor-beta (PRβ) fused to DBD of GAL4 (Homo sapiens, UniProt P06401); experiment: LBD-expressing reporter assay (GeneBLAzer), PR LBD; format: cell-based; conditions: inhibition of maximal activity attained with agonist; read-out: Steroid Receptor LBD IC50 (μM) PR
T1 sequence (P06401 679-913 limits assumed): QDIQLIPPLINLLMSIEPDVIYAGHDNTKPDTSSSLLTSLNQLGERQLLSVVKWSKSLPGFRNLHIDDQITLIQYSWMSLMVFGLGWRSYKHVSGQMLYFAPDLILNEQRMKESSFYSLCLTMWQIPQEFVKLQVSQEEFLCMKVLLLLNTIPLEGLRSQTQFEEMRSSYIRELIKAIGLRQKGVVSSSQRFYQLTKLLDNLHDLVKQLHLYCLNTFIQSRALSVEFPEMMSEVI
Excerpt: (§6) This assay uses cells that stably express a chimera fusion protein comprising the LBD of a steroid hormone receptor fused to the DNA-binding domain (DBD) of GAL4 along with beta-lactamase reporter under transcriptional control of an upstream activator sequence (UAS). When agonist binds to the LBD of the GAL4 (DBD)-steroid hormone (LBD) chimera fusion protein, the protein binds to the UAS, resulting in expression of beta-lactamase. LBDs of androgen receptor (AR), progesterone receptor-beta (PRβ), glucocorticoid receptor (GR), estrogen receptor-α (ERα), and estrogen receptor-β (ERβ) were tested and IC50s calculated for inhibiting maximal activity attained with agonist.

[3] = target: T2, LBD of estrogen receptor-α (ERα) fused to DBD of GAL4 (Homo sapiens, UniProt P03372); experiment: LBD-expressing reporter assay (GeneBLAzer), ERα LBD; format: cell-based; conditions: inhibition of maximal activity attained with agonist; read-out: Steroid Receptor LBD IC50 (μM) ERα
T2 sequence (P03372 311-547 limits assumed): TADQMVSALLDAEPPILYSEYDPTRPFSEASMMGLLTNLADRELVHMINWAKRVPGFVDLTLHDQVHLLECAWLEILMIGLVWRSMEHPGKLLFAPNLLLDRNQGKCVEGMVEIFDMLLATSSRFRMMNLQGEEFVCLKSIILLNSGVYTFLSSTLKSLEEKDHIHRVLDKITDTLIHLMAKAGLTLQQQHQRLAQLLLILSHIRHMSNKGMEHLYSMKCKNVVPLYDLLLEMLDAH
Excerpt: as §6

[4] = target: T3, LBD of androgen receptor (AR) fused to DBD of GAL4 (Homo sapiens, UniProt P10275); experiment: LBD-expressing reporter assay (GeneBLAzer), AR LBD; format: cell-based; conditions: inhibition of maximal activity attained with agonist; read-out: Steroid Receptor LBD IC50 (μM) AR
T3 sequence (P10275 669-900 limits assumed): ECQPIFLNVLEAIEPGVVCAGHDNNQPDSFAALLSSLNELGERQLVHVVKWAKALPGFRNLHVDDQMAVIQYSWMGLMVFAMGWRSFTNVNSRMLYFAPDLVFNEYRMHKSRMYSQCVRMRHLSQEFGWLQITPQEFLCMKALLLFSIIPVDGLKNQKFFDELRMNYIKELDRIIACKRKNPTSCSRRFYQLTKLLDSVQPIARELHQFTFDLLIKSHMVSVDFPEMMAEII
Excerpt: as §6

[5] = Microsomal stability assay, monkey liver microsomes; format: in vitro ADME; conditions: pH 7.4, read-out: Liver microsome T½ (min) Monkey
Protocol: as §1, §2, §3, §4, §5

SMILES | half-life at 1 μM [1] [min] | IC50 [2] [µM] | IC50 [3] [µM] | IC50 [4] [µM] | half-life at 1 μM [5] [min]
CC(C)(c1ccc(OCc2coc(NS(C)(=O)=O)n2)cc1)c1cc(Cl)c(OCCCl)c(Cl)c1 [Compound A38, N-(4-((4-(2-(3,5-dichloro-4-(2-chloroethoxy)phenyl)propan-2-yl)phenoxy)methyl)oxazol-2-yl)methanesulfonamide] | 12 | 5.07 | > 10 | > 10 | > 120
CC(C)(c1ccc(OCc2ncc(S(C)(=O)=O)s2)cc1)c1cc(Cl)c(OCCCl)c(C#N)c1 [Compound A93, 3-chloro-2-(2-chloroethoxy)-5-(2-(4-((5-(methylsulfonyl)thiazol-2-yl)methoxy)phenyl)propan-2-yl)benzonitrile] | 83 | 5.04 | > 10 | > 10 | 101
CC(C)(c1ccc(OCc2ccnc(NS(C)(=O)=O)n2)cc1)c1cc(Cl)c(OCCCl)c(C#N)c1 [Compound A109, N-(4-((4-(2-(3-chloro-4-(2-chloroethoxy)-5-cyanophenyl)propan-2-yl)phenoxy)methyl)pyrimidin-2-yl)methanesulfonamide] | > 120 | 5.61 | > 10 | > 10 | > 120
CC(C)(c1ccc(OC[C@H](O)CNS(C)(=O)=O)cc1)c1cc(Cl)c(OC[C@H](O)CCl)c(Cl)c1 [X, reference compound] | – | 4.96 | 5.82 | 9.83 | –
CC(C)(c1ccc(OCc2ccnc(NS(C)(=O)=O)n2)cc1)c1cc(Cl)c(OCCCl)c(Cl)c1 [Compound A74, N-(4-((4-(2-(3,5-dichloro-4-(2-chloroethoxy)phenyl)propan-2-yl)phenoxy)methyl)pyrimidin-2-yl)methanesulfonamide] | > 120 | 5.41 | > 10 | > 10 | > 120

The next molecules have a lower IC50 [2] than those just listed; values first:

half-life at 1 μM [1] [min] | IC50 [2] [µM] | IC50 [3] [µM] | IC50 [4] [µM] | half-life at 1 μM [5] [min] | SMILES
64 | 0.97 | > 10 | > 10 | > 120 | CC(C)(c1ccc(OCc2ocnc2S(C)(=O)=O)cc1)c1cc(Cl)c(OCCCl)c(Cl)c1 [Compound A13, 5-((4-(2-(3,5-dichloro-4-(2-chloroethoxy)phenyl)propan-2-yl)phenoxy)methyl)-4-(methylsulfonyl)oxazole]
23 | 0.93 | > 10 | > 10 | 73 | CC(C)(c1ccc(OCc2ocnc2S(C)(=O)=O)cc1)c1cc(Cl)c(OCCCl)c(C#N)c1 [Compound A28, 3-chloro-2-(2-chloroethoxy)-5-(2-(4-((4-(methylsulfonyl)oxazol-5-yl)methoxy)phenyl)propan-2-yl)benzonitrile]
